The values below come from patent US20050136444A1 (priority 2003, published 2005).

For data set [1], the system named is Barrel Rotations. Briefly: Barrel rotations after ICV administration of NPFF. It counts as in vivo, rat. Conditions: naive rats. An excerpt: Given that this is the only mention in the literature with respect to NPFF and barrel-rotation, we attempted to replicate this effect using naive rats implanted with ICV cannula.
Data set [2] deals with Barrel Rotations. Conditions: 60 μg, reported by Panula et al. 1996; cited from earlier work.
For data set [3], the system named is 52° C. Water Tail Flick Test. Description: 52° C. Water Tail Flick Test, intrathecal administration. It counts as in vivo, rat. Conditions: rats. The protocol: Rats were implanted with chronically indwelling intrathecal catheters (PE-10; 7.5 cm) allowing for the delivery of compounds to the lumbar spinal cord. As a positive control, rats were treated with various doses of morphine (3, 10 and 30 μg).
Rats were implanted with chronically indwelling intrathecal catheters (PE-10; 7.5 cm) allowing for the delivery of compounds to the lumbar spinal cord.
Rats were implanted with chronically indwelling intrathecal catheters (PE-10; 7.5 cm) allowing for the delivery of compounds to the lumbar spinal cord. In order to rule out the possibility that the lack of antinociception produced by NPFF was due to the degradation of the peptide we administered 1DME (a stable NPFF analog).

Another data set deals with NPFF1 (Homo sapiens, UniProt Q9GZQ6). Briefly: Receptor Selection and Amplification Technology (R-SAT) functional assay, NPFF1. It is filed as cell-based. Also noted: expressed in transfected cells; host or cells: NIH3T3. Conditions: for EC50: NA = No activity detectable at the highest dose tested (20 μM), read-out: NPFF1 pEC50 (converted). The protocol: (§1) Briefly, NIH3T3 cells were grown in 96 well tissue culture plates to 70-80% confluence. Cells were transfected for 16-20 h h with plasmid DNAs using Polyfect (Qiagen Inc.) as per manufacturer's protocols. R-SAT's were generally performed with 40 ng/well of receptor and 20 ng/well of β-galactosidase plasmid DNA. All receptor and G-protein constructs used were in the pSI-derived mammalian expression vector (Promega Inc) as described previously. […] For large-scale transfections, cells were transfected for 16-20 h, then trypsinized and frozen in DMSO. Frozen cells were later thawed, plated at ˜20,000 cells per well of a 96 half-area well plate that contained drug. With both methods, cells were then grown in a humidified atmosphere with 5% ambient CO2 for five days. Media was then removed from the plates and marker gene activity was measured by the addition of the β-galactosidase substrate o-nitrophenyl β-D-galactopyranoside (ONPG, in PBS with 0.5% NP-40). The resulting colorimetric reaction was measured in a spectrophotometric plate reader (Titertek Inc.) at 420 nm. All data were analyzed using the computer program XLFit (IDBSm).
(§2) R-SAT assay was conducted as set forth in […]

Another data set has as its target T1, NPFF2 (Homo sapiens, UniProt Q9Y5X5).
T1 construct: expressed in transfected cells; host or cells: NIH3T3
Briefly: Receptor Selection and Amplification Technology (R-SAT) functional assay, NPFF2. It is filed as cell-based. On the procedure:
as §1, §2

The next data set deals with T2, NPFF2b (Homo sapiens, UniProt Q9Y5X5).
T2 construct: expressed in transfected cells; host or cells: HEK-T
Description: cAMP assay in transiently transfected HEK-T cells, NPFF2. Conditions: HEK-T cell, read-out: NPFF2b % Efficacy Mean. It counts as cell-based. On the procedure: An assay was established for measuring cAMP in transiently transfected cells that takes advantage of the fact that most cells that are transfected with one gene, can be simultaneously transfected with other genes. Thus, the NPFF1 and NPFF2 receptors were transfected along with a Gs-coupled receptor (EP2) at a ratio of 5:1.
This set up was routinely used for the transfection of HEK-T cells with NPFF1 and NPFF2 receptors. […] Cells were incubated for 15 minutes at 37° C. At the end of incubation, cells were lysed and the remainder of the assay performed as per DiscoveRx protocol.
Cells were incubated for another 15 minutes at 37° C. following which the cells were lysed and processed as per kit protocol.

The subject of a further data set is rats. Description: Observed behaviors / side effects after systemic administration. It counts as in vivo, rat. Conditions: rats, i.p. On the procedure: These behaviors typically precede “barrel-rolling” seizures.
These effects persisted between 15 and 20 minutes. These effects were not observed in rats that received doses less than 10 mg/kg.
These effects persisted between 15 and 20 minutes and were shown by both sham-operated and SNL rats. These effects were not observed in rats that received doses less than 10 mg/kg. [drawing 22]
However, these effects were more robust and of longer duration (60-90 min).
These effects persisted between 60 and 90 minutes and were shown by both sham-operated and SNL rats. These effects were not observed in rats that received doses less than 10 mg/kg. [drawing 23]
A model of neuropathic pain was created in rats by tight ligation of the L5 and L6 spinal nerves. […] Rats were then treated with various doses of dPQR (3, 10 and 30 mg/kg, i.p.) and paw withdrawal thresholds were tested across a period of 3 hours.
A model of neuropathic pain was created in rats by tight ligation of the L5 and L6 spinal nerves. […] Rats were then treated with various doses of Compound 3099 (1, 3 and 10 mg/kg, i.p.) and paw withdrawal thresholds were tested across a period of 3 hours.
In an attempt to increase the efficacy of Compound 3099 in the SNL model, we administered a dose of 30 mg/kg (i.p.) to SNL rats. […] Further, these behaviors were also transient, such that, by the end of the testing period these effects appeared to have resolved.

The mark [4] stands for this setting: R-SAT, Table 1, Efficacy is relative to endogenous ligand, read-out: NPFF1 % Efficacy.
Setting [5] is: R-SAT, Table 1, Efficacy is relative to endogenous ligand, read-out: NPFF2 % Efficacy.
Where [6] appears, read: R-SAT, Table 1, NA = No activity detectable at the highest dose tested (20 μM), read-out: NPFF2 pEC50 (converted).

Structures are written as SMILES. Structures can show the parent of a compound that is named as a salt. Where two headings read alike, the source gives them in different places.

Chain of NPFF1 (Q9GZQ6 whole entry, species assumed): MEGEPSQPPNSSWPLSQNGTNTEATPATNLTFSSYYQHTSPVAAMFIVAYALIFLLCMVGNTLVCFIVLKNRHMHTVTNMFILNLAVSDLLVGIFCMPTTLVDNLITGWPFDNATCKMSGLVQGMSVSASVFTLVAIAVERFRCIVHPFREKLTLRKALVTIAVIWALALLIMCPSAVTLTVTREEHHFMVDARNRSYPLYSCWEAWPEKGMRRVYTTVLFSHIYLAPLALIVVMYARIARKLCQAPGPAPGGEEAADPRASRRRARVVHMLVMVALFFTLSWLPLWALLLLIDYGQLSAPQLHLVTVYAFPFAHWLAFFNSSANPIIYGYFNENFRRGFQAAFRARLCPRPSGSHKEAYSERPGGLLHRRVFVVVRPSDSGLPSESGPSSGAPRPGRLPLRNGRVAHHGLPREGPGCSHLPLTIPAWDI
T1 sequence (Q9Y5X5 103-522): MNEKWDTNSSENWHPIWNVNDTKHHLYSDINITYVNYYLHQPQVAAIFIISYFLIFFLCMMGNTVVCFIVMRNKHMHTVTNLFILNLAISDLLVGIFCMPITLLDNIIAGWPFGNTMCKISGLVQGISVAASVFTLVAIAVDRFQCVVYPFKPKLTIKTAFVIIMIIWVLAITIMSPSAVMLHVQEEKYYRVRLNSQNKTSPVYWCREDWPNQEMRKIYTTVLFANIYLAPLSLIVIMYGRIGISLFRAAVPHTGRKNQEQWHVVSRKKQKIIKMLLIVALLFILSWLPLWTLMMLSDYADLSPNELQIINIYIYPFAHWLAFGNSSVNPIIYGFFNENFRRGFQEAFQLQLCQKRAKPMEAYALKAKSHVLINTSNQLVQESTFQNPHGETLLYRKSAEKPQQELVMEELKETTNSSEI
T2 sequence (Q9Y5X5 103-522 limits assumed): as the sequence (Q9Y5X5 103-522) above

In the case of `CC(C)C[C@H](NC(=O)[C@@H](N)Cc1ccccc1)C(=O)N[C@@H](Cc1ccccc1)C(=O)N[C@@H](CCC(N)=O)C(=O)N1CCC[C@H]1C(=O)N[C@@H](CCC(N)=O)C(=O)N[C@@H](CCCN=C(N)N)C(=O)N[C@@H](Cc1ccccc1)C(N)=O` [NPFF, Neuropeptide FF], the figures for the “rats demonstrating barrel rolling seizures” value in the data set with Barrel Rotations [1] (60 μg), in the data set on Barrel Rotations [1] (120 μg) and with Barrel Rotations [1] (150 μg) were 0 out of 3, 1 out of 2 and 3 out of 5, respectively. Besides, the “barrel-rotation after ICV administration” value with Barrel Rotations [2] is reported as “elicits barrel-rotation”.
With `CN1CC[C@]23c4c5ccc(O)c4O[C@H]2[C@@H](O)C=C[C@H]3[C@H]1C5` [Morphine, morphine], the “A50, antinociception” value in data set [3] (95% CI) came out at 9.8 µg. For the same molecule, in data set [3] (morphine 3, 10, 30 μg, NPFF 100 μg, 1045 11.6 or 115.5 μg, 1DME 5.6, 55.6 or 556.0 μg), the “antinociception in 52° C. water tail flick test” value is given as “produced dose-related antinociception”.
For `CC(=NNC(=N)N)c1ccc(C)c(C)c1` [Compound 3021, 1-[1-(3,4-Dimethylphenyl)ethylideneamino]guanidine Hydrochloride], the Emax at NPFF1 (setting [4]) was determined as 32%; on NPFF2 (setting [5]), 70%. Also, the EC50 at NPFF1 (R-SAT, Table 1) was 10 µM; at NPFF2 (setting [6]), 2.51 µM.
For the molecule `CCCOc1ccc(C=NNC(=N)N)cc1` [Compound 4006, 1-(4-n-Propoxybenzylideneamino)guanidine Hydrochloride], the Emax amounted to 78% at NPFF1 (setting [4]) and 53% on NPFF2 (setting [5]). The EC50 on NPFF1 (R-SAT, Table 1) is 3.98 µM; at NPFF2 (setting [6]), 2 µM.
`N=C(N)NN=Cc1ccc2c(c1)OCCCO2` [Compound 2038, 1-[3,4-Dihydro-2H-benzo[b][1,4]dioxepin-7-yl)methylideneamino]guanidine Hydrochloride]: the values for the Emax at NPFF1 (setting [4]) and at NPFF2 (setting [5]) were 9% and 77%, respectively. Also, at NPFF2 (setting [6]), the EC50 is 3.98 µM.
Consider `CCCCCCc1ccc(C(C)=NNC(=N)N)cc1` [Compound 3023, Hydrochloride], for which the values for the Emax at NPFF1 (setting [4]) and at NPFF2 (setting [5]) were 29% and 22%, respectively. Moreover, the EC50 at NPFF1 (R-SAT, Table 1) was 0.501 µM; on NPFF2 (setting [6]), 1.26 µM.
As for `N=C(N)NN=Cc1ccc(O)c(Cl)c1` [Compound 2031, 1-(3-Chloro-4-hydroxybenzylideneamino)guanidine Hydrochloride], the figures for the Emax at NPFF1 (setting [4]) and at NPFF2 (setting [5]) were 1% and 16%, respectively.
Consider `COc1cc(Cl)cc(C=NNC(=N)N)c1OC` [Compound 2059, 1-(5-Chloro-2,3-dimethoxybenzylideneamino)guanidine Hydrochloride], for which the values for the Emax at NPFF1 (setting [4]) and on NPFF2 (setting [5]) were 31% and 79%, respectively. Also, the EC50 on NPFF1 (R-SAT, Table 1) was 10 µM; at NPFF2 (setting [6]) it was 5.01 µM.
Take `Cc1cc(C=NNC(=N)N)ccc1F` [Compound 2012, 1-(4-Fluoro-3-methylbenzylideneamino)guanidine Hydrochloride]: the results for the Emax on NPFF1 (setting [4]) and on NPFF2 (setting [5]) were 9% and 56%, respectively. Further, the EC50 on NPFF2 (setting [6]) is 1.58 µM.
Consider `N=C(N)NN=Cc1ccc(C(F)(F)F)cc1F` [Compound 2060, 1-[2-Fluoro-4-(trifluoromethyl)benzylideneamino]guanidine Hydrochloride], for which the Emax on NPFF1 (setting [4]) is 26%; at NPFF2 (setting [5]), 48%. The EC50 at NPFF1 (R-SAT, Table 1) was 3.98 µM; on NPFF2 (setting [6]) it was 3.98 µM.
In the case of `COc1cc(OC)c(C=NNC(=N)N)cc1Br` [Compound 4015, 1-(5-Bromo-2,4-dimethoxybenzylideneamino)guanidine Hydrochloride], the Emax at NPFF1 (setting [4]) came to 37%; on NPFF2 (setting [5]), 64%. The EC50 on NPFF1 (R-SAT, Table 1) was 7.94 µM; on NPFF2 (setting [6]), 2 µM.
As to `N=C(N)NN=Cc1ccc(F)c(Cl)c1` [Compound 2013, 1-(3-Chloro-4-fluorobenzylideneamino)guanidine Hydrochloride], the Emax on NPFF1 (setting [4]) is 4%; at NPFF2 (setting [5]), 34%. Further, at NPFF2 (setting [6]), the EC50 is 0.794 µM.
Take `CN(CCO)c1ccc(C=NNC(=N)N)cc1` [Compound 3041, 1-{4-[Methyl-(2-hydroxyethyl)amino]benzylideneamino}guanidine Hydrochloride]: the Emax came out at 30% on NPFF1 (setting [4]) and 53% on NPFF2 (setting [5]). The EC50 was 10 µM on NPFF1 (R-SAT, Table 1) and 10 µM at NPFF2 (setting [6]).
Take `Cl.N=C(N)NN=Cc1ccc(Cl)c(Cl)c1` [Compound 1045.HCl, 1-(3,4-Dichlorobenzylideneamino)guanidine Hydrochloride]: the Emax is 34% at NPFF2b; 17.7% at NPFF1 (R-SAT data, Table 2, multiple entries = different batches, read-out: NPFF1 % Efficacy Mean); 67.6% at NPFF2 (R-SAT data, Table 2, multiple entries = different batches, read-out: NPFF2b % Efficacy Mean). For the same molecule, the EC50 on NPFF2 (NPFF2b pEC50 Mean, R-SAT data, Table 2, multiple entries = different batches) is 1 µM. Besides, the side effects observed result with rats (10 mg/kg) is “demonstrated writhing behavior and appeared lethargic”. Also, the “side effects at doses less than 10 mg/kg” value in the data set on rats is given as “not observed”.
For the molecule `CCOc1ccc(C=NNC(=N)N)cc1OCC` [Compound 2026, 1-(3,4-Diethoxybenzylideneamino)guanidine], the Emax came out at 9% on NPFF1 (setting [4]) and 58% at NPFF2 (setting [5]). Also, the EC50 at NPFF2 (setting [6]) is 7.94 µM.
Turning to `CC(=NNC(=N)N)c1ccc2c(c1)CCCC2` [Compound 3024, 1-[1-(5,6,7,8-Tetrahydronaphthalen-2-yl)ethylideneamino]guanidine Hydrochloride], the results for the Emax on NPFF1 (setting [4]) and on NPFF2 (setting [5]) were 41% and 99%, respectively. The EC50 at NPFF1 (R-SAT, Table 1) is 1 µM; at NPFF2 (setting [6]), 0.398 µM.
As for `N=C(N)NN=Cc1ccc(Oc2ccccc2)cc1` [Compound 2020, 1-(4-Phenoxybenzylideneamino)guanidine Hydrochloride], the values for the Emax at NPFF1 (setting [4]) and on NPFF2 (setting [5]) were 24% and 31%, respectively. Besides, the EC50 on NPFF1 (R-SAT, Table 1) was 1.26 µM; on NPFF2 (setting [6]), 0.501 µM.
Turning to `Cc1cccc(C=NNC(=N)N)c1` [Compound 3018, 1-(3-Methylbenzylideneamino)guanidine Hydrochloride], the Emax at NPFF1 (setting [4]) stood at 13%; on NPFF2 (setting [5]), 54%. Also, the EC50 at NPFF2 (setting [6]) is 5.01 µM.
In the case of `N=C(N)NN=Cc1ccc(Br)cc1F` [Compound 2018, 1-(4-Bromo-2-fluorobenzylideneamino)guanidine Hydrochloride], the Emax at NPFF1 (setting [4]) came to 13%; at NPFF2 (setting [5]), 53%. In addition, the EC50 on NPFF2 (setting [6]) is 3.16 µM.
With `CC(C)Oc1ccc(C=NNC(=N)N)cc1` [Compound 2025, 1-(4-Isopropoxybenzylideneamino)guanidine], the Emax on NPFF1 (setting [4]) was found to be 51%; at NPFF2 (setting [5]) it was 87%. Besides, the EC50 was 3.98 µM at NPFF1 (R-SAT, Table 1) and 3.98 µM on NPFF2 (setting [6]).
